# Key:
# [1] = target: Rhodopsin kinase GRK1 (Homo sapiens) (UniProt Q15835); assay: Inhibition of full length wild type human GRK1 expressed in mammalian system assessed as enzyme activity at 1 uM relative to control; parameters: scale not given: the % may be the effect or the level left
# [2] = target: Tyrosine-protein kinase BTK (Homo sapiens) (UniProt Q06187); assay: Inhibition of full length wild type human BTK expressed in mammalian system assessed as enzyme activity at 1 uM relative to control; parameters: scale not given: the % may be the effect or the level left
# [3] = target: Mast/stem cell growth factor receptor Kit (Homo sapiens) (UniProt P10721); assay: Inhibition of partial length wild type human KIT expressed in bacterial system assessed as enzyme activity at 1 uM relative to control; parameters: scale not given: the % may be the effect or the level left
# Chain of Mast/stem cell growth factor receptor Kit (Homo sapiens) (P10721 whole entry, the tested form may be a part): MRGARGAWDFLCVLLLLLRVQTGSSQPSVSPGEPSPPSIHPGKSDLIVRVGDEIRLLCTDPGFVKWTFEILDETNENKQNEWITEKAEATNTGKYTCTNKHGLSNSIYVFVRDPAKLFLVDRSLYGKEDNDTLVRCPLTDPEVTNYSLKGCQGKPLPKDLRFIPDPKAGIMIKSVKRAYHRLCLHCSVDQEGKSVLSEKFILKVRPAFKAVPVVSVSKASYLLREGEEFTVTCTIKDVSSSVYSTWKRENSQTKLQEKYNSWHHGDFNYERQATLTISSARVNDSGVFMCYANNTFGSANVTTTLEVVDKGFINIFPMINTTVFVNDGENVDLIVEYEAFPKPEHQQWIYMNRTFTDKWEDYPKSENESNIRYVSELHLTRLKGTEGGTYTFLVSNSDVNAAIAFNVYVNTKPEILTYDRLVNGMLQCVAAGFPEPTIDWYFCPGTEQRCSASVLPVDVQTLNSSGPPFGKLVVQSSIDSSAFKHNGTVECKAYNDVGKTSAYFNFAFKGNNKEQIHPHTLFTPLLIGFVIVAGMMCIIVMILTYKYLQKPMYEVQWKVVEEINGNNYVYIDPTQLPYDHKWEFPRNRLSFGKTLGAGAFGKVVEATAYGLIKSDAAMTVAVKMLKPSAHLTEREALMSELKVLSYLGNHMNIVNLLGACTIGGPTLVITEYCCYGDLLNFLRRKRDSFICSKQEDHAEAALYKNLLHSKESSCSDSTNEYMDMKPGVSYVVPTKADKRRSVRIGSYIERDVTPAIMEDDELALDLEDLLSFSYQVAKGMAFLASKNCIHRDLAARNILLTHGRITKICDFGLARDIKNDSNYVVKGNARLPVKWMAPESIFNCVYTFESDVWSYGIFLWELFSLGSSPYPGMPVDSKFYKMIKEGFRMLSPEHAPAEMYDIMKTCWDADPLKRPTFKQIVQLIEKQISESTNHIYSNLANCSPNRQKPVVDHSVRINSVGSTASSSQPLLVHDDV
# [4] = target: Ribosomal protein S6 kinase alpha-5 (Homo sapiens) (UniProt O75582); assay: Inhibition of partial length wild type human RPS6KA5 (N-terminal Kinase Domain 1) expressed in bacterial system assessed as enzyme activity at 1 uM relative to control; parameters: scale not given: the % may be the effect or the level left
# [5] = target: Mitogen-activated protein kinase kinase kinase 7 (Homo sapiens) (UniProt O43318); assay: Inhibition of partial length wild type human TAK1 expressed in mammalian system assessed as enzyme activity at 1 uM relative to control; parameters: scale not given: the % may be the effect or the level left
# Chain of Mitogen-activated protein kinase kinase kinase 7 (Homo sapiens) (O43318 whole entry): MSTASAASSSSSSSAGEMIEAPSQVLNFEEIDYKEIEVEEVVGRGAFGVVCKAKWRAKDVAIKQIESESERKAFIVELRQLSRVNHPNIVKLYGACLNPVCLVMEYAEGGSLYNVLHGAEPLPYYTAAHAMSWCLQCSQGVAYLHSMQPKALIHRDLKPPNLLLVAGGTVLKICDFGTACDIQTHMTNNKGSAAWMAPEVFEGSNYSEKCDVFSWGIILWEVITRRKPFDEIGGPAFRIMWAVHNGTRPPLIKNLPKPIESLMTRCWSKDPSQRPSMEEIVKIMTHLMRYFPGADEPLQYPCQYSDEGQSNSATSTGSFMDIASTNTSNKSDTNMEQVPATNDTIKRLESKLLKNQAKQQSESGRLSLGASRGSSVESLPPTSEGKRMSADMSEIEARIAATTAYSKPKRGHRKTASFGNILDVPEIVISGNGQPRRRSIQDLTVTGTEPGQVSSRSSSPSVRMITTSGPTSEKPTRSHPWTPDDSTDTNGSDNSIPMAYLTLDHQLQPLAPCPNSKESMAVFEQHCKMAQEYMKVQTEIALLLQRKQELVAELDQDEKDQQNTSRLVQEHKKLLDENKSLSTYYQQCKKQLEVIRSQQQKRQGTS
# [6] = target: Mitogen-activated protein kinase kinase kinase kinase 4 (Homo sapiens) (UniProt O95819); assay: Inhibition of partial length wild type human MAP4K4 expressed in bacterial system assessed as enzyme activity at 1 uM relative to control; parameters: scale not given: the % may be the effect or the level left
# [7] = target: Ribosomal protein S6 kinase alpha-1 (Homo sapiens) (UniProt Q15418); assay: Inhibition of partial length wild type human RSK1(Kin.Dom.1-N-terminal) expressed in bacterial system assessed as enzyme activity at 1 uM relative to control; parameters: scale not given: the % may be the effect or the level left
# [8] = target: Dual specificity tyrosine-phosphorylation-regulated kinase 1A (Homo sapiens) (UniProt Q13627); assay: Inhibition of partial length wild type human DYRK1A expressed in mammalian system assessed as enzyme activity at 1 uM relative to control; parameters: scale not given: the % may be the effect or the level left
# [9] = target: Dual specificity mitogen-activated protein kinase kinase 5 (Homo sapiens) (UniProt Q13163); assay: Inhibition of partial length wild type human MEK5 expressed in mammalian system assessed as enzyme activity at 1 uM relative to control; parameters: scale not given: the % may be the effect or the level left
# [10] = target: Serine/threonine-protein kinase PLK1 (Homo sapiens) (UniProt P53350); assay: Inhibition of partial length wild type human PLK1 expressed in mammalian system assessed as enzyme activity at 1 uM relative to control; parameters: scale not given: the % may be the effect or the level left
# Chain of Serine/threonine-protein kinase PLK1 (Homo sapiens) (P53350 whole entry): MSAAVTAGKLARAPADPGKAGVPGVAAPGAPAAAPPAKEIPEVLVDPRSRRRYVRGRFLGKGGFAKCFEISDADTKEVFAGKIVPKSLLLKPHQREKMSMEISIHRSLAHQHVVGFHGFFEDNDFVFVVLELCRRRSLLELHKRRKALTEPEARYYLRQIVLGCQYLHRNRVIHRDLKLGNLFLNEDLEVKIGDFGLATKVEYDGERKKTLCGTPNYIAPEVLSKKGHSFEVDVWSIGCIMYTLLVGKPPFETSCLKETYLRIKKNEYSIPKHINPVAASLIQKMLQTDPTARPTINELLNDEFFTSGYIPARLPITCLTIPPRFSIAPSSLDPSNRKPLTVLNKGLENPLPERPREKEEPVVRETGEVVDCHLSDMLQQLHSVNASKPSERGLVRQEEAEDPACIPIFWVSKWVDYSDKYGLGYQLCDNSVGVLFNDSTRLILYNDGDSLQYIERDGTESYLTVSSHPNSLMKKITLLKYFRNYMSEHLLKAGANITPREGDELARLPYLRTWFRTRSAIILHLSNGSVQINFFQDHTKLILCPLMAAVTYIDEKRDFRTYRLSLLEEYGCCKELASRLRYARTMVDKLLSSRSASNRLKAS
# [11] = target: Serine/threonine-protein kinase MARK1 (Homo sapiens) (UniProt Q9P0L2); assay: Inhibition of partial length wild type human MARK1 expressed in bacterial system assessed as enzyme activity at 1 uM relative to control; parameters: scale not given: the % may be the effect or the level left
# [12] = target: Serine/threonine-protein kinase Chk1 (Homo sapiens) (UniProt O14757); assay: Inhibition of partial length wild type human CHEK1 expressed in bacterial system assessed as enzyme activity at 1 uM relative to control; parameters: scale not given: the % may be the effect or the level left
# [13] = target: Myotonin-protein kinase (Homo sapiens) (UniProt Q09013); assay: Inhibition of partial length wild type human DMPK expressed in bacterial system assessed as enzyme activity at 1 uM relative to control; parameters: scale not given: the % may be the effect or the level left
# Chain of Myotonin-protein kinase (Homo sapiens) (Q09013 whole entry): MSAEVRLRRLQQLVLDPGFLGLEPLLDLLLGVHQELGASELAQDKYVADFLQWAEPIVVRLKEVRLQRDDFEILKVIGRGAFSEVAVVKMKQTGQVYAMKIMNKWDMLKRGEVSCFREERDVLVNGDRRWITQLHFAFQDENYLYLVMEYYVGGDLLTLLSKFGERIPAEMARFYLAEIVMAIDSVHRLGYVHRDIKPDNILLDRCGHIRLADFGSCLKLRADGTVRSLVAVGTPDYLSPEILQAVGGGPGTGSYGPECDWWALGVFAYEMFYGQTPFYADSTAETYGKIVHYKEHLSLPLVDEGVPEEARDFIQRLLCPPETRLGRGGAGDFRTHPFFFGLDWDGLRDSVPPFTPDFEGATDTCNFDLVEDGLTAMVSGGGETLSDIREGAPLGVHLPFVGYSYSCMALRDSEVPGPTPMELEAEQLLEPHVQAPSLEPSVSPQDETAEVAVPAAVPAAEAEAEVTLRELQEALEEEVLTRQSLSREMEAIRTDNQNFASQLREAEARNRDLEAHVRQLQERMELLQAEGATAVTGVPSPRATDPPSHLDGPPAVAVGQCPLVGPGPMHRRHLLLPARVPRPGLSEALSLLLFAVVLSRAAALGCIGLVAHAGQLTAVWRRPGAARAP
# [14] = target: Serine/threonine-protein kinase PLK4 (Homo sapiens) (UniProt O00444); assay: Inhibition of partial length wild type human PLK4 expressed in mammalian system assessed as enzyme activity at 1 uM relative to control; parameters: scale not given: the % may be the effect or the level left
# [15] = target: MAP kinase-interacting serine/threonine-protein kinase 1 (Homo sapiens) (UniProt Q9BUB5); assay: Inhibition of full length wild type human MKNK1 expressed in mammalian system assessed as enzyme activity at 1 uM relative to control; parameters: scale not given: the % may be the effect or the level left
# [16] = target: Serine/threonine-protein kinase 32B (Homo sapiens) (UniProt Q9NY57); assay: Inhibition of full length wild type human YANK2 expressed in bacterial system assessed as enzyme activity at 1 uM relative to control; parameters: scale not given: the % may be the effect or the level left
# [17] = target: Serine/threonine-protein kinase 3 (Homo sapiens) (UniProt Q13188); assay: Inhibition of partial length wild type human MST2 expressed in bacterial system assessed as enzyme activity at 1 uM relative to control; parameters: scale not given: the % may be the effect or the level left
# [18] = target: Vascular endothelial growth factor receptor 2 (Homo sapiens) (UniProt P35968); assay: Inhibition of partial length wild type human VEGFR2 expressed in mammalian system assessed as enzyme activity at 1 uM relative to control; parameters: scale not given: the % may be the effect or the level left
# [19] = target: Calcium/calmodulin-dependent protein kinase type IV (Homo sapiens) (UniProt Q16566); assay: Inhibition of partial length wild type human CAMK4 expressed in bacterial system assessed as enzyme activity at 1 uM relative to control; parameters: scale not given: the % may be the effect or the level left
# [20] = target: Dual specificity mitogen-activated protein kinase kinase 3 (Homo sapiens) (UniProt P46734); assay: Inhibition of full length wild type human MEK3 expressed in mammalian system assessed as enzyme activity at 1 uM relative to control; parameters: scale not given: the % may be the effect or the level left
# Chain of Dual specificity mitogen-activated protein kinase kinase 3 (Homo sapiens) (P46734 whole entry): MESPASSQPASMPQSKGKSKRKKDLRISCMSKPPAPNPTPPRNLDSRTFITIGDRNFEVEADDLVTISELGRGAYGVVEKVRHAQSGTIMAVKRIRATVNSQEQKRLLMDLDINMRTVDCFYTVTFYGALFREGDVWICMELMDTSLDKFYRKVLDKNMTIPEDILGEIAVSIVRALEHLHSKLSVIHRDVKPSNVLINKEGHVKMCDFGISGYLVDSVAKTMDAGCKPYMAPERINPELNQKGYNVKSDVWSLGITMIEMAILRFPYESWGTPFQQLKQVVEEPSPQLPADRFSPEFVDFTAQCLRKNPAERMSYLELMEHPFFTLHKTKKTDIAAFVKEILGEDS
# [21] = target: Serine/threonine-protein kinase 33 (Homo sapiens) (UniProt Q9BYT3); assay: Inhibition of full length wild type human STK33 expressed in bacterial system assessed as enzyme activity at 1 uM relative to control; parameters: scale not given: the % may be the effect or the level left
# [22] = target: Epithelial discoidin domain-containing receptor 1 (Homo sapiens) (UniProt Q08345); assay: Inhibition of partial length wild type human DDR1 expressed in bacterial system assessed as enzyme activity at 1 uM relative to control; parameters: scale not given: the % may be the effect or the level left
# [23] = target: Proto-oncogene tyrosine-protein kinase Src (Homo sapiens) (UniProt P12931); assay: Inhibition of partial length wild type human SRC expressed in bacterial system assessed as enzyme activity at 1 uM relative to control; parameters: scale not given: the % may be the effect or the level left
# Chain of Proto-oncogene tyrosine-protein kinase Src (Homo sapiens) (P12931 2-536 limits assumed): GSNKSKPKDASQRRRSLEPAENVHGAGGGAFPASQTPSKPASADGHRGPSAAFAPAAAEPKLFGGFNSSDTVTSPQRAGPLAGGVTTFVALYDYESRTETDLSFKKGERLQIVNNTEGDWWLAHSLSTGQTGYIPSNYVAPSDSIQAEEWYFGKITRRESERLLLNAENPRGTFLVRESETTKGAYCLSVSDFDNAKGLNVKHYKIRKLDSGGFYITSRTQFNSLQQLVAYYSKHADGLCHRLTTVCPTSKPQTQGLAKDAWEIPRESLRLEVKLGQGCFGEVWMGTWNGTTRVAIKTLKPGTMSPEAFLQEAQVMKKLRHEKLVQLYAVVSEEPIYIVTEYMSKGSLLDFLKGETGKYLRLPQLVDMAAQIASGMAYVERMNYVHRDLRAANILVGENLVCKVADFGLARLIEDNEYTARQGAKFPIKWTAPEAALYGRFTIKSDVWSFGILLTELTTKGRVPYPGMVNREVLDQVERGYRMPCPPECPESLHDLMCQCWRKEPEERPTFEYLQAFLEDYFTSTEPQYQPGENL
# [24] = target: RAC-beta serine/threonine-protein kinase (Homo sapiens) (UniProt P31751); assay: Inhibition of partial length wild type human AKT2 expressed in bacterial system assessed as enzyme activity at 1 uM relative to control; parameters: scale not given: the % may be the effect or the level left
# [25] = target: Cyclin-G-associated kinase (Homo sapiens) (UniProt O14976); assay: Inhibition of partial length wild type human GAK expressed in bacterial system assessed as enzyme activity at 1 uM relative to control; parameters: scale not given: the % may be the effect or the level left
# [26] = target: Testis-specific serine/threonine-protein kinase 1 (Homo sapiens) (UniProt Q9BXA7); assay: Inhibition of full length wild type human TSSK1B expressed in bacterial system assessed as enzyme activity at 1 uM relative to control; parameters: scale not given: the % may be the effect or the level left
# [27] = target: Phosphatidylinositol 4,5-bisphosphate 3-kinase catalytic subunit alpha isoform (Homo sapiens) (UniProt P42336); assay: Inhibition of partial length wild type human PIK3CA expressed in mammalian system assessed as enzyme activity at 1 uM relative to control; parameters: scale not given: the % may be the effect or the level left
# [28] = target: Tyrosine-protein kinase Fyn (Homo sapiens) (UniProt P06241); assay: Inhibition of partial length wild type human FYN expressed in bacterial system assessed as enzyme activity at 1 uM relative to control; parameters: scale not given: the % may be the effect or the level left
# [29] = target: Tyrosine-protein kinase JAK2 (Homo sapiens) (UniProt O60674); assay: Inhibition of partial length wild type human JAK2 (catalytic JH1 domain) expressed in mammalian system assessed as enzyme activity at 1 uM relative to control; parameters: scale not given: the % may be the effect or the level left
# [30] = target: Fibroblast growth factor receptor 1 (Homo sapiens) (UniProt P11362); assay: Inhibition of partial length wild type human FGFR1 expressed in bacterial system assessed as enzyme activity at 1 uM relative to control; parameters: scale not given: the % may be the effect or the level left
# [31] = target: Serine/threonine-protein kinase Nek4 (Homo sapiens) (UniProt P51957); assay: Inhibition of full length wild type human NEK4 expressed in mammalian system assessed as enzyme activity at 1 uM relative to control; parameters: scale not given: the % may be the effect or the level left
# [32] = target: Serine/threonine-protein kinase B-raf (Homo sapiens, UniProt P15056); assay: Inhibition of wild type B-Raf (unknown origin) assessed as MEK1 phosphorylation using MEK1-Avitag as substrate after 1 hr by HTRF assay
# Chain of Serine/threonine-protein kinase B-raf (P15056 whole entry): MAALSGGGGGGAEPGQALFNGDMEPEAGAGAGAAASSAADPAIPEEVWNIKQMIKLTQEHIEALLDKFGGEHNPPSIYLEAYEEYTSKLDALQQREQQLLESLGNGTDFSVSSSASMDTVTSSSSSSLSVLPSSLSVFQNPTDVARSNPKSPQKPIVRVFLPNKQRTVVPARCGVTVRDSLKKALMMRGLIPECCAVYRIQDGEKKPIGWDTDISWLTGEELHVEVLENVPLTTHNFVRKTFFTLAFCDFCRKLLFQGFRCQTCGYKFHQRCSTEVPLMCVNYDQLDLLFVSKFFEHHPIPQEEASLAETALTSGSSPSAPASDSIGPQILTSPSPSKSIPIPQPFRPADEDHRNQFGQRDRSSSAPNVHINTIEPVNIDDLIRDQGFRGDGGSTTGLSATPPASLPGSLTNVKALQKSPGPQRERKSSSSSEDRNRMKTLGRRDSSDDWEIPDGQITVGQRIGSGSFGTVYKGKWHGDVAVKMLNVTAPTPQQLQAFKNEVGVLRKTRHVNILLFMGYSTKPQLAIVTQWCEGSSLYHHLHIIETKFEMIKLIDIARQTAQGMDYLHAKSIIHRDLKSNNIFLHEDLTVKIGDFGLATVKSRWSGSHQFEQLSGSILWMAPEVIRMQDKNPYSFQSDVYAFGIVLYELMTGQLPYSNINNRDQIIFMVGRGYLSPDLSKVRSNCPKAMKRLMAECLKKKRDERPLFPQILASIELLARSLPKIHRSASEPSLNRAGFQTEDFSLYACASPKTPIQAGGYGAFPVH
# Chain of Rhodopsin kinase GRK1 (Homo sapiens) (Q15835 whole entry): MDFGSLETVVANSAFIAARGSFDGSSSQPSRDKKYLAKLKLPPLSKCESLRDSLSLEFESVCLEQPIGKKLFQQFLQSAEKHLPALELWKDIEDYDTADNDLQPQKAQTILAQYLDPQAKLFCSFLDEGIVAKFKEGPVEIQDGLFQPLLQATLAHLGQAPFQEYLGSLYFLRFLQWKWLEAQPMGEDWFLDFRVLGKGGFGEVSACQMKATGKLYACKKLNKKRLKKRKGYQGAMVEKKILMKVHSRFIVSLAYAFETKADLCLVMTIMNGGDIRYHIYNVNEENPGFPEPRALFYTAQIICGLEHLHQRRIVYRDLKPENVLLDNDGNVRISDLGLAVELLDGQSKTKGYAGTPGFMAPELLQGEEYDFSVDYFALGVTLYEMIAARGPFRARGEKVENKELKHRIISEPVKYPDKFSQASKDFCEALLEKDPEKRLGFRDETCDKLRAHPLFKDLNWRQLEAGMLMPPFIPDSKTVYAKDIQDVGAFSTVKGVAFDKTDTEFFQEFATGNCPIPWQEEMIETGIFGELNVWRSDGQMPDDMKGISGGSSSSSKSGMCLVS
compound,measurement,setting,value
CN(C)S(=O)(=O)Nc1ccc(F)c(Nc2ncccc2-c2ncnc3[nH]cnc23)c1F,Activity,[1],76%
same,Activity,[2],95%
same,Activity,[3],68%
same,Activity,[4],100%
same,Activity,[5],70%
same,Activity,[6],98%
same,Activity,[7],94%
same,Activity,[8],96%
same,Activity,[9],0.9%
same,Activity,[10],100%
same,Activity,[11],100%
same,Activity,[12],86%
same,Activity,[13],100%
same,Activity,[14],91%
same,Activity,[15],77%
same,Activity,[16],100%
same,Activity,[17],91%
same,Activity,[18],84%
same,Activity,[19],83%
same,Activity,[20],100%
same,Activity,[21],100%
same,Activity,[22],88%
same,Activity,[23],100%
same,Activity,[24],100%
same,Activity,[25],78%
same,Activity,[26],100%
same,Activity,[27],100%
same,Activity,[28],64%
same,Activity,[29],100%
same,Activity,[30],83%
same,Activity,[31],100%
same,IC50,[32],90 nM

# Reference: ChEMBL document CHEMBL3797029, “Purinylpyridinylamino-based DFG-in/αC-helix-out B-Raf inhibitors: Applying mutant versus wild-type B-Raf selectivity indices for compound profiling” (Bioorg Med Chem, 2016)
